Results from patent US20250282732A1, “NOVEL ESTERS OF 1,2,3,4,4a,5,6,7,8,9,10,10a-DODECAHYDROBENZO[G]QUINOLIN-6-OL COMPOUNDS AND USES THEREOF” (INTEGRATIVE RESEARCH LABORATORIES SWEDEN AB, priority 2022, published 2025).

Columns and labels:
Format in all cases: in vivo, rat
[1] = tested on: non-pre-treated Sprague-Dawley rats; assay: Spontaneous locomotor activity (distance travelled); conditions: for effect on motor activity patterns (distance travelled): 0.3 μmol/kg single dose, Preparation 4A SC, Example 5 PO and SC, vs saline, 0-180 min post dosing; for on-set of action (distance travelled increases after the initial decrease): time after administration
Experimental: Behavioral activity was measured using eight Digiscan activity monitors (RXYZM (16) TAO, Omnitech Electronics, Columbus, OH, USA), connected to an Omnitech Digiscan analyzer and an Apple Macintosh computer equipped with a digital interface board (NB DIO-24, National Instruments, USA). Each activity monitor consisted of a quadratic metal frame (W×L=40 cm×40 cm) equipped with photo beam sensors. During measurements of behavioral activity, a rat was put in a transparent acrylic cage (W×L×H, 40×40×30 cm) which in turn was placed in the activity monitor. Each activity monitor was equipped with three rows of infrared photo beam sensors, each row consisting of 16 sensors. Two rows were placed along the front and the side of the floor of the cage, at a 90° angle, and the third row was placed 10 cm above the floor to measure vertical activity. Photo beam sensors were spaced 2.5 cm apart. Each activity monitor was fitted in an identical sound and light attenuating box containing a weak house light and a fan. The computer software was written using object-oriented programming (LabVIEW™, National instruments, Austin, TX, USA). Behavioral data from each activity monitor, representing the position (horizontal center of gravity and vertical activity) of the animal at each time, were recorded at a sampling frequency of 25 Hz and collected using a custom written LABView™ application. The data from each recording session were stored and analyzed with respect to distance traveled. Each behavioral recording session lasted 180 min, starting approximately 5 min after the injection of test compound.
Compounds disclosed herein have been tested for effects on spontaneous locomotor activity in non-pre-treated Sprague-Dawley rats (based on accumulated distance travelled 0-180 min post dosing), and with the single dose of 0.3 μmol/kg (n=5, SC) compared to a control group of animals (n=5) that obtained saline (SC). The prior art compound according to Preparation 4A was administered subcutaneously (SC). The compound according to Example 5 was administered perorally (PO) and subcutaneously (SC), respectively. The unit of the distance travelled is an arbitrary unit.
The animals were placed in the motility meters immediately after administration and locomotor activity was recorded for 180 minutes. Results are presented as distance travelled for the control group (empty bar) and for the group of animals that obtained the drug (filled bar).
The animals were placed in the motility meters immediately after administration and locomotor activity was recorded for 180 minutes. Results are presented as distance travelled for the control group (empty bars) and for the group of animals that obtained the drug (filled bar).

Arc mRNA = Arc mRNA tissue levels in brain regions (real-time PCR); conditions: SC, 0.3 and 1 μmol/kg; 60 min after injection; vs controls
Experimental: (§1) Animals were killed 60 min after the injection of the drugs by decapitation.
(§2) The brains were dissected into a left and a right part. The left part was analyzed for gene expression and dissected into 4 different areas:
(§3) Limbic system (containing nucleus accumbens, most parts of the olfactory tubercle, ventral pallidum and amygdala), striatum, frontal cortex, and hippocampus.
(§4) Total RNA was prepared by RNeasy Plus Universal Tissue Mini Kit (Qiagen).
(§5) RNA pellets were dissolved in RNAse-free water and stored at −80° C. The sample concentration was determined spectrophotometrically by a Nanorop ND-1000.
A two-step reversed transcription was performed by using a SuperScript III kit (Invitrogen). 1 μg of total RNA was reversed transcribed with 5 μl 2× RT Reaction Mix, 1 μl RT Enzyme and the mix volume was adjusted to 10 μl with RNAse-free water. The samples were incubated at 25° C. for 10 mi, 50° C. for 30 mi and finally 85° C. for 5 mi. 1 U of E. coli RNase H was added following incubation at 37° C. for 20 mi and 85° C. for 5 minutes. The cDNA solution was diluted 40 times in Tris EDTA buffer solution pH8 (Merck) and stored at −20° C.
Three sequences (arc and two reference genes) were amplified together in a triplex PCR-reaction. For real-time PCR measurements: 5 μl of the cDNA reaction was amplified in a 20 μl reaction mixture containing 10 μl PerfeCTa MultiPlex qPCR SuperMix (Quantabio), 3.5 μl RNAse-free water, 0.15 μM of each primer and 0.1 μM of each probe. Real-time PCR was measured on CFX96 (Bio-Rad) using the following settings for all genes: 3 mi pre-incubation at 95° C. followed by 40 cycles of denaturation at 95° C. for 15s, annealing and elongation at 60° C. for 1 mi. […]
FIG. 5 illustrates the effects on tissue levels of Arc mRNA in four different regions of the brain (limbic regions, striatum, frontal cortex and hippocampus) after subcutaneous administration of two different compounds at two different doses as in comparison to that of corresponding control experiments. The bars in the left half of the figure represent the effects on ARC by the prior art compound according to Preparation 4A ((4aR,10aR)-1-propyl-1,2,3,4,4a,5,8,9,10,10a-decahydrobenzo[g]quinolin-6(7H)-one) and the bars in the right half of the figure represent the effects on ARC by the compound of the present disclosure according to Example 5 oxalic acid salt of ((4aR,10aR)-1-propyl-1,2,3,4,4a,5,6,7,8,9,10,10a-dodecahydrobenzo[g]quinolin-6-yl acetate (Mixture of 6R and 6S epimers). The effects on tissue levels of Arc by both of the two aforementioned compounds were measured at two different doses (0.3 μmol/kg and 1 μmol/kg) and the effect is presented as percent of control means±SEM. Statistical significance was assessed using Student's t-test (2 tailed) vs controls.

Npas4 = Npas4 mRNA tissue levels in brain regions (TaqMan PCR); conditions: 60 min after injection; to a greater extent than the prior art compound according to Preparation 4A
Experimental: as §1, §2, §3, §4, §5
A two-step reversed transcription was performed by using a SuperScript III kit (Invitrogen). 1 μg of total RNA was reversed transcribed with 5 μl 2× RT Reaction Mix, 1 μl RT Enzyme and the mix volume was adjusted to 10 μl with RNAse-free water. The samples were incubated at 25° C. for 10 mi, 50° C. for 30 mi and finally 85° C. for 5 mi. […]
EGR-1 (Early growth response qRnoCEP0022872) was analyzed in duplex with the reference gene HPRT (hypoxanthine phosphoribosyltransferase qRnoCEP0050840). Npas4 (neuronal PAS domain protein4 qRnoCEP0029461) was analyzed in singleplex. The reference gene Ppia (cyclophilin A peptidyl-propyl cis-trans isomeraseqRnoCIP0050815) was also analyzed in order to quantify gene expression for genes of interest.

Compound | effect on motor activity patterns (distance travelled) [1] | duration of action as compared to the prior art compound (trend) ([1]; 0.3 μmol/kg, increase in desired effect observed much later in the experiment) | on-set of action (distance travelled increases after the initial decrease) ([1]; 0.3 μmol/kg) | tissue levels of Arc in the frontal cortex (Arc mRNA) | tissue levels of Arc in the limbic regions (Arc mRNA) | tissue levels of Npas4 in the limbic regions (Npas4) | immediate effect on motor activity: long distance travelled already within ([1]; 0.3 μmol/kg SC)
CCCN1CCC[C@@H]2CC3=C(CCCC3OC(C)=O)C[C@H]21.O=C(O)C(=O)O (stereo partly drawn) [Example 5, (4aR,10aR)-1-propyl-1,2,3,4,4a,5,6,7,8,9,10,10a-dodecahydrobenzo[g]quinolin-6-yl acetate] | induce hyperactivity | longer duration of action | 35 to 40 min | dose-dependently increase | dose-dependently increases | increases tissue levels | 
CCCN1CCC[C@@H]2CC3=C(CCCC3=O)C[C@H]21 [Preparation 4A, (4aR,10aR)-1-propyl-1,2,3,4,4a,5,8,9,10,10a-decahydrobenzo[g]quinolin-6(7H)-one, reference compound] | induce hyperactivity |  | 20 to 25 min | dose-dependently increase | does not have |  | 20 to 45 min
